These results are taken from patent publication US20080160617A1, “AGENT FOR INDUCING EMBRYONIC STEM CELL TO ECTODERMAL CELL, METHOD FOR OBTAINING THE SAME, AND USE OF THE SAME” (KYOWA HAKKO KOGYO CO., LTD., priority 2001, published 2008).

Assay [1] has as its system embryonic stem cell. As to conditions: cited from earlier work.
Assay [2] relates to ES cell EB5. Description: Nerve differentiation of ES cell EB5 by solution recovered from PA6 cell with polyanion-containing Hanks' balanced salt solution (SDIA activity). Format: cell-based, mouse. The following applies: 14 days. How it is done:
ES cell EB5 (H. Niwa et al., Nature Genet., 24, 372 (2000); obtained from Dr. Hitoshi Niwa at the Molecular Control Medical Science Course, Medical School, Osaka University) was used as the embryonic stem cell, and an MC3T3-G2/PA6 cell (H. Kodama et al., J. Cell Physiol., 112) 89 (1982), hereinafter referred to as “PA6 cell”) as the stromal cell, and the ES cell EB5 was cultured in accordance with the method described in Reference Example 1 and used in the test.
Cells of PA6 cultured to almost confluent state on a dish of 10 cm in diameter were washed twice with 10 ml of PBS(−) (manufactured by Invitrogen) and once with 10 ml of Hanks' balanced salt solution (manufactured by Invitrogen), 3 ml of Hanks' balanced salt solution containing from 0.001% (w/v) to 0.1% (w/v) of heparin (manufactured by Nacalai Tesque) was added thereto, the mixture was allowed to stand at 37° C. for 30 minutes, and the solution was recovered. The solution obtained was added to the PA6 on the 10 cm, dish washed in the same manner described above, the mixture was allowed to stand at 37° C. for 30 minutes in the same manner, and then the solution was recovered. This process was carried out on PA6 on the other 10 cm dish, and effect of the recovered solution ES cell was examined. In this case, a solution recovered in the same manner by using a heparin-free Hanks' balanced salt solution was used as a negative control.
The solution obtained in the above was mixed at a ratio of 1:2 with a solution containing the ES cell EB5 which had been adjusted to a single cell state in a serum-free medium by the method described in Reference Example 1, and the mixture was inoculated into a gelatin-coated plastic culture dish at a cell density of 1,250 cells/cm^2 and incubated at 37° C. for 14 days in a CO2 incubator in an atmosphere of 5% carbon dioxide.
The cells after the culturing were fixed by 4% paraformaldehyde solution and subjected to immune staining in accordance with the method described in Using Antibodies, Cold Spring Harbor Laboratory Press (1999), using an anti-NCAM antibody (manufactured by Chemicon) as a general nerve marker, an anti-class III β-tubulin antibody (manufactured by Babco) as a nerve-specific marker and an anti-nestin antibody (manufactured by Pharmingen) as a nerve precursor cell-specific marker.
Compounds other than heparin with which the SDIA activity factor can be recovered were searched by the method for recovering an SDIA activity factor described in Example 1. Using a Hanks' balanced salt solution containing, instead of heparin, 0.001% (w/v) dextran sulfate (manufactured by Sigma), 0.001% (w/v) polyvinyl sulfate (manufactured by Sigma), 0.001% (w/v) polystyrene sulfonate (manufactured by Tosoh) 0.1% (w/v) carboxymethylcellulose (manufactured by, Wako Pure Chemical Industries) or 0.1% (w/v) hyaluronic acid (manufactured by Kibun Chemical Foods), respective solutions were recovered by the method described in Example 1 to examine their effects on the ES cell. In this case, a solution recovered in the same manner by using a heparin-free Hanks' balanced salt solution was used as a negative control.

Assay [3] relates to ES cell EB5. Description: Heparin treatment of PA6 feeder cell before paraformaldehyde fixation, nerve differentiation of ES cell EB5. The format is cell-based, mouse. The following applies: PA6 cell cultured 2 days in medium containing 200 ng/ml heparin, then paraformaldehyde-fixed; 8 days coculture. How it is done:
According to the method described in Reference Example 3, the ES cell EB5 was cultured for 8 days in the serum-free medium without BMP4 by using the paraformaldehyde-fixed PA6 cell as a feeder cell. Also, the case when the PA6 cell was cultured in a medium containing heparin (GIBCO BRL) (hereinafter referred to as “heparin treatment”) was compared with the case when culturing in a heparin-free medium. That is, dishes in which the PA6 cell proliferated to almost confluent on a 3 cm tissue culture dish was cultured for 2 days in a medium containing 200 ng/ml of heparin and dishes in which it was cultured for 2 days in a heparin-free medium were prepared, washed twice with PBS(−) and subjected to paraformaldehyde fixation, and the ES cell EB5 was inoculated onto the paraformaldehyde-fixed PA6 cell at a density of 200 cells/dish, the medium was exchanged with a fresh medium on the 4th, 6th and 7th days, and then the cells were cultured at 37° C. for 8 days in a stream of 5% carbon dioxide in a CO2 incubator.
Eight days after coculturing, the cells were fixed according to the method described in Reference Example 1, and the colonies formed as a result of the coculturing of the ES cell EB5 with PA6 cell were immunologically stained with the anti-NCAM antibody, anti-tubulin antibody and anti-nestin antibody.

Setting [4] is: solution recovered from PA6 cell with Hanks' solution containing 0.1% (w/v) polyanion instead of heparin.
The mark [5] stands for this setting: solution recovered from PA6 cell with Hanks' solution containing 0.001% (w/v) polyanion instead of heparin.

With EGF: epidermal growth factor, the “SDIA-like activity to induce differentiation of embryonic stem cell into ectoderm system cells” value in assay [1] was “no SDIA-like activity”.

In the case of HGF: hepatocyte growth factor, in assay [1], the “SDIA-like activity to induce differentiation of embryonic stem cell into ectoderm system cells” value is listed as “no SDIA-like activity”.

For the substance LIF: leukemia inhibitory factor, in assay [1], the “SDIA-like activity to induce differentiation of embryonic stem cell into ectoderm system cells” value is given as “no SDIA-like activity”.

For the substance PDGF, the “SDIA-like activity to induce differentiation of embryonic stem cell into ectoderm system cells” value in assay [1] is on record as “no SDIA-like activity”.

bFGF: basic fibroblast growth factor: the “SDIA-like activity to induce differentiation of embryonic stem cell into ectoderm system cells” value in assay [1] was “no SDIA-like activity”.

carboxymethylcellulose: the “ratio of colonies expressing class III β-tubulin” value (from here on “ratio”) in assay [2] (setting [4]) worked out at 34.6%.

With dextran sulfate, the “ratio” value in assay [2] (setting [5]) is listed as 67.2%.

Consider heparin, for which the “differentiation of ES cell into nerve cell on heparin-treated PA6 feeder cell” value in assay [3] is “significant differentiation of ES cell into nerve cell was not observed”. In addition, the “ratio” value in assay [2] (solution recovered from PA6 cell with Hanks' balanced salt solution containing 0.001% (w/v) heparin, mixed 1:2 with ES cell EB5) came out at 68%.

Regarding hyaluronic acid, in assay [2] (setting [4]), the “ratio” value turned out to be 19.8%.

Consider polystyrene sulfonate, for which the “ratio” value in assay [2] (setting [5]) is 48.7%.

With polyvinyl sulfate, the “ratio” value in assay [2] (setting [5]) worked out at 54.8%.
